For 11 compounds, Kd results are on record in patent publication US20250011368A1, “DLL3 TARGETING PEPTIDES AND CONSTRUCTS THEREOF” (MARIANA ONCOLOGY INC., priority 2023, published 2025).

Molecules are shown by their SMILES. Bridge positions count the residues as written; N and C are the ends. Square brackets hold non-standard residues; d marks the D form. Peptide text beside a SMILES is read from it. * marks the point of attachment. ξ: configuration not given here. DOTA = O=C(O)CN1CCN(CC(=O)O)CCN(CC(=O)*)CCN(CC(=O)O)CC1; Trp(5-F) = N[C@@H](Cc1c[nH]c2ccc(F)cc12)C(=O)O; Phe(2-CF3) = N[C@@H](Cc1ccccc1C(F)(F)F)C(=O)O; Trp(7-aza) = N[C@@H](Cc1c[nH]c2ncccc12)C(=O)O; Pro(trans-4-F) = O=C(O)[C@@H]1C[C@@H](F)CN1; Phe(4-F) = N[C@@H](Cc1ccc(F)cc1)C(=O)O; 1Nal = N[C@@H](Cc1cccc2ccccc12)C(=O)O; 2Nal = N[C@@H](Cc1ccc2ccccc2c1)C(=O)O; β3hF = N[C@H](CC(=O)O)Cc1ccccc1; Chg = N[C@H](C(=O)O)C1CCCCC1; Tle = CC(C)(C)[C@H](N)C(=O)O; αMeP = C[C@@]1(C(=O)O)CCCN1; Octanoyl = CCCCCCCC(=O)*; Aze = O=C(O)[C@@H]1CCN1; Dab = NCC[C@H](N)C(=O)O; Hexanoyl = CCCCCC(=O)*; ξK = NCCCCC(N)C(=O)O

This assay deals with T1, human DLL3 (Homo sapiens, UniProt Q9NYJ7).
T1 sequence (Q9NYJ7 27-618): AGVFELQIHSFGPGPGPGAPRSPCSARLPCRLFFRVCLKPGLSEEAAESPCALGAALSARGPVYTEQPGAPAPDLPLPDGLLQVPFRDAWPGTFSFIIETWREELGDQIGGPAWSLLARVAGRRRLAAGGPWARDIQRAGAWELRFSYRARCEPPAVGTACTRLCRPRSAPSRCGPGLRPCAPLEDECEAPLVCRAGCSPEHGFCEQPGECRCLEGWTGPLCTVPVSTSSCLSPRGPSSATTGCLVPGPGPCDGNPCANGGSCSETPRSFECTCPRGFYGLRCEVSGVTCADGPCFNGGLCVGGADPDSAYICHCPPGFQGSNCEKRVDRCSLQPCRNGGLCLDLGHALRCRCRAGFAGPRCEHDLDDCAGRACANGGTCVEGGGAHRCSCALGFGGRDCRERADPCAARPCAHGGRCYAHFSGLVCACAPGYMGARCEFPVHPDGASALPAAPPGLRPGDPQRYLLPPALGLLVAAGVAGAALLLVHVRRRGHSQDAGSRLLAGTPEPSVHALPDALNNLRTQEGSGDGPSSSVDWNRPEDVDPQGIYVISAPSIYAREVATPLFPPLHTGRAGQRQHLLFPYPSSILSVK
The experiment in a line: Affinity determination by Surface Plasmon Resonance (SPR). In kind it is binding. Particulars: 25° C., biotinylated human DLL3 immobilized on streptavidin sensor chip, 1:1 binding model; read-out: SPR KD. How it is done: SPR studies were performed on the compounds disclosed herein using the following protocol.
Biotinylated target ligand human DLL3 was immobilized on a streptavidin sensor chip. A reference surface was set up for nonspecific binding and refractive index changes. For analysis of the kinetics of interactions, varying concentrations of samples were injected at a flow rate of 100 μL/minute using running buffer containing 20 mM phosphate buffer with 2.7 mM KCl, 137 mM NaCl, 0.05% Surfactant P20 and 2% DMSO. Sensorgram curves were fitted with 1:1 binding model, and affinity and kinetic parameters were obtained using Biacore Insight evaluation 4.0. software.

On to `CCCCCC(=O)NCC[C@@H]1NC(=O)[C@H](Cc2c[nH]c3ccccc23)NC(=O)[C@H](CC(N)=O)NC(=O)[C@H](CC(N)=O)NC(=O)[C@@H](NC(=O)[C@@H](NC(=O)[C@@H](NC(=O)[C@H](Cc2c[nH]c3ccccc23)NC(C)=O)[C@@H](C)O)[C@@H](C)CC)CSSC[C@@H](C(=O)N[C@@H](Cc2c[nH]c3ccccc23)C(=O)N2CCC[C@H]2C(=O)N[C@H](CCCCNC(=O)CN2CCN(CC(=O)O)CCN(CC(=O)O)CCN(CC(=O)O)CC2)C(N)=O)NC(=O)[C@H](CC(=O)O)NC1=O` [compound 92, Ac-W-T-I-C(3)-N-N-W-(DAB-4-NHCOC5H11)-D-C(3)-W-P-[D-Lys(DOTA)]-NH2] (Ac-WTICNNW[Dab](Hexanoyl)DCWP[dK](DOTA)-NH2; disulfide 4-10), for which the Kd (usually the free concentration of one partner at which half of the binding sites on the other are occupied at equilibrium, for simple one-to-one binding) fell in the range of 10 to 100 nM.
To `CCCCCCCC(=O)NCC[C@@H]1NC(=O)[C@H](Cc2c[nH]c3ccccc23)NC(=O)[C@H](CC(N)=O)NC(=O)[C@H](CC(N)=O)NC(=O)[C@@H](NC(=O)[C@@H](NC(=O)[C@@H](NC(=O)[C@H](Cc2c[nH]c3ccccc23)NC(C)=O)[C@@H](C)O)[C@@H](C)CC)CSSC[C@@H](C(=O)N[C@@H](Cc2c[nH]c3ccccc23)C(=O)N2CCC[C@H]2C(=O)N[C@H](CCCCNC(=O)CN2CCN(CC(=O)O)CCN(CC(=O)O)CCN(CC(=O)O)CC2)C(N)=O)NC(=O)[C@H](CC(=O)O)NC1=O` [compound 93, Ac-W-T-I-C(3)-N-N-W-(DAB-4-NHCOC7H15)-D-C(3)-W-P-[D-Lys(DOTA)]-NH2] (Ac-WTICNNW[Dab](Octanoyl)DCWP[dK](DOTA)-NH2; disulfide 4-10) belongs 10 to 100 nM; to `CC[C@H](C)[C@H](NC(=O)[C@@H](NC(=O)[C@H](Cc1c[nH]c2ccc(F)cc12)NC(C)=O)[C@@H](C)O)C(=O)N[C@H]1CSSC[C@@H](C(=O)N[C@@H](Cc2c[nH]c3ccccc23)C(=O)N2CCC[C@H]2C(=O)N[C@H](CCCCNC(=O)CN2CCN(CC(=O)O)CCN(CC(=O)O)CCN(CC(=O)O)CC2)C(N)=O)NC(=O)[C@H](CC(=O)O)NC(=O)[C@H](Cc2c[nH]cn2)NC(=O)[C@H](Cc2c[nH]c3ccccc23)NC(=O)[C@H](CC(N)=O)NC(=O)[C@H](CC(N)=O)NC1=O` [compound 100, Ac-(5Fluoro-W)-T-I-C(3)-N-N-W-H-D-C(3)-W-P-[D-Lys(DOTA)]-NH2] (Ac-[Trp(5-F)]TICNNWHDCWP[dK](DOTA)-NH2; disulfide 4-10), under 1 nM; to `CC[C@H](C)[C@H](NC(=O)[C@@H](NC(=O)[C@H](Cc1c[nH]c2ccccc12)NC(C)=O)[C@@H](C)O)C(=O)N[C@H]1CSSC[C@@H](C(=O)N[C@@H](Cc2c[nH]c3ccccc23)C(=O)N2CCC[C@@]2(C)C(=O)N[C@H](CCCCNC(=O)CN2CCN(CC(=O)O)CCN(CC(=O)O)CCN(CC(=O)O)CC2)C(N)=O)NC(=O)[C@H](CC(=O)O)NC(=O)[C@H](Cc2c[nH]cn2)NC(=O)[C@H](Cc2c[nH]c3ccccc23)NC(=O)[C@H](CC(N)=O)NC(=O)[C@H](CC(N)=O)NC1=O` [compound 105, Ac-W-T-I-C(3)-N-N-W-H-D-C(3)-W-(aMe-P)-[D-Lys(DOTA)]-NH2] (Ac-WTICNNWHDCW[αMeP][dK](DOTA)-NH2; disulfide 4-10), 1 to 10 nM.
In the case of `CC(=O)N[C@@H](Cc1c[nH]c2ccccc12)C(=O)N[C@H](C(=O)N[C@H](C(=O)N[C@H]1CSSC[C@@H](C(=O)N[C@@H](Cc2c[nH]c3ccccc23)C(=O)N2CCC[C@H]2C(=O)N[C@H](CCCCNC(=O)CN2CCN(CC(=O)O)CCN(CC(=O)O)CCN(CC(=O)O)CC2)C(N)=O)NC(=O)[C@H](CC(=O)O)NC(=O)[C@H](Cc2c[nH]cn2)NC(=O)[C@H](Cc2c[nH]c3ccccc23)NC(=O)[C@H](CC(N)=O)NC(=O)[C@H](CC(N)=O)NC1=O)C1CCCCC1)[C@@H](C)O` [compound 106, Ac-W-T-(Chg)-C(3)-N-N-W-H-D-C(3)-W-P-[D-Lys(DOTA)]-NH2] (Ac-WT[Chg]CNNWHDCWP[dK](DOTA)-NH2; disulfide 4-10), the Kd was under 1 nM.
To `CC(=O)N[C@@H](Cc1c[nH]c2ccccc12)C(=O)N[C@H](C(=O)N[C@@H](Cc1cccc2ccccc12)C(=O)N[C@H]1CSSC[C@@H](C(=O)N[C@@H](Cc2c[nH]c3ccccc23)C(=O)N2CCC[C@H]2C(=O)N[C@H](CCCCNC(=O)CN2CCN(CC(=O)O)CCN(CC(=O)O)CCN(CC(=O)O)CC2)C(N)=O)NC(=O)[C@H](CC(=O)O)NC(=O)[C@H](Cc2c[nH]cn2)NC(=O)[C@H](Cc2c[nH]c3ccccc23)NC(=O)[C@H](CC(N)=O)NC(=O)[C@H](CC(N)=O)NC1=O)[C@@H](C)O` [compound 107, Ac-W-T-(1Nal)-C(3)-N-N-W-H-D-C(3)-W-P-[D-Lys(DOTA)]-NH2] (Ac-WT[1Nal]CNNWHDCWP[dK](DOTA)-NH2; disulfide 4-10) belongs 10 to 100 nM; to `CC[C@H](C)[C@H](NC(=O)[C@@H](NC(=O)[C@H](Cc1c[nH]c2ccccc12)NC(C)=O)[C@@H](C)O)C(=O)N[C@H]1CSSC[C@@H](C(=O)N[C@@H](Cc2c[nH]c3ccccc23)C(=O)N2C[C@H](F)C[C@H]2C(=O)N[C@H](CCCCNC(=O)CN2CCN(CC(=O)O)CCN(CC(=O)O)CCN(CC(=O)O)CC2)C(N)=O)NC(=O)[C@H](CC(=O)O)NC(=O)[C@H](Cc2c[nH]cn2)NC(=O)[C@H](Cc2c[nH]c3ccccc23)NC(=O)[C@H](CC(N)=O)NC(=O)[C@H](CC(N)=O)NC1=O` [compound 113, Ac-W-T-I-C(3)-N-N-W-H-D-C(3)-W-(trans4Fluoro-P)-[D-Lys(DOTA)]-NH2] (Ac-WTICNNWHDCW[Pro(trans-4-F)][dK](DOTA)-NH2; disulfide 4-10), under 1 nM; to `CC(=O)N[C@@H](Cc1c[nH]c2ccccc12)C(=O)N[C@H](C(=O)N[C@@H](Cc1ccccc1C(F)(F)F)C(=O)N[C@H]1CSSC[C@@H](C(=O)N[C@@H](Cc2c[nH]c3ccccc23)C(=O)N2CCC[C@H]2C(=O)N[C@H](CCCCNC(=O)CN2CCN(CC(=O)O)CCN(CC(=O)O)CCN(CC(=O)O)CC2)C(N)=O)NC(=O)[C@H](CC(=O)O)NC(=O)[C@H](Cc2c[nH]cn2)NC(=O)[C@H](Cc2c[nH]c3ccccc23)NC(=O)[C@H](CC(N)=O)NC(=O)[C@H](CC(N)=O)NC1=O)[C@@H](C)O` [compound 114, Ac-W-T-(2CF3-F)-C(3)-N-N-W-H-D-C(3)-W-P-[D-Lys(DOTA)]-NH2] (Ac-WT[Phe(2-CF3)]CNNWHDCWP[dK](DOTA)-NH2; disulfide 4-10), under 1 nM.
With `CC(=O)N[C@@H](Cc1c[nH]c2ccccc12)C(=O)N[C@H](C(=O)N[C@H](CC(=O)N[C@H]1CSSC[C@@H](C(=O)N[C@@H](Cc2c[nH]c3ccccc23)C(=O)N2CCC[C@H]2C(=O)N[C@H](CCCCNC(=O)CN2CCN(CC(=O)O)CCN(CC(=O)O)CCN(CC(=O)O)CC2)C(N)=O)NC(=O)[C@H](CC(=O)O)NC(=O)[C@H](Cc2c[nH]cn2)NC(=O)[C@H](Cc2c[nH]c3ccccc23)NC(=O)[C@H](CC(N)=O)NC(=O)[C@H](CC(N)=O)NC1=O)Cc1ccccc1)[C@@H](C)O` [compound 115, Ac-W-T-(2PhEt-A)-C(3)-N-N-W-H-D-C(3)-W-P-[D-Lys(DOTA)]-NH2] (Ac-WT[β3hF]CNNWHDCWP[dK](DOTA)-NH2; disulfide 4-10) the figure was 1 to 10 nM; with `CC(=O)N[C@@H](Cc1c[nH]c2ccccc12)C(=O)N[C@H](C(=O)N[C@@H](Cc1ccc2ccccc2c1)C(=O)N[C@H]1CSSC[C@@H](C(=O)N[C@@H](Cc2c[nH]c3ccccc23)C(=O)N2CCC[C@H]2C(=O)N[C@H](CCCCNC(=O)CN2CCN(CC(=O)O)CCN(CC(=O)O)CCN(CC(=O)O)CC2)C(N)=O)NC(=O)[C@H](CC(=O)O)NC(=O)[C@H](Cc2c[nH]cn2)NC(=O)[C@H](Cc2c[nH]c3ccccc23)NC(=O)[C@H](CC(N)=O)NC(=O)[C@H](CC(N)=O)NC1=O)[C@@H](C)O` [compound 116, Ac-W-T-(2Nal)-C(3)-N-N-W-H-D-C(3)-W-P-[D-Lys(DOTA)]-NH2] (Ac-WT[2Nal]CNNWHDCWP[dK](DOTA)-NH2; disulfide 4-10), 10 to 100 nM; with `CC(=O)N[C@@H](Cc1c[nH]c2ccc(F)cc12)C(=O)N[C@H](C(=O)N[C@H](C(=O)N[C@H]1CSSC[C@@H](C(=O)N[C@@H](Cc2c[nH]c3ncccc23)C(=O)N2CC[C@H]2C(=O)NC(CCCCNC(=O)CN2CCN(CC(=O)O)CCN(CC(=O)O)CCN(CC(=O)O)CC2)C(N)=O)NC(=O)[C@H](CC(=O)O)NC(=O)[C@H](Cc2cnc[nH]2)NC(=O)[C@H](Cc2ccc(F)cc2)NC(=O)[C@H](CC(N)=O)NC(=O)[C@H](CC(N)=O)NC1=O)C(C)(C)C)[C@@H](C)O` (stereo partly drawn) [compound 121, Ac-(5Fluoro-W)-T-(Tbg)-C(3)-N-N-(4Fluoro-F)-H-D-C(3)-(7Aza-W)-(Aze)-[D-Lys(DOTA)]-NH2] (Ac-[Trp(5-F)]T[Tle]CNN[Phe(4-F)]HDC[Trp(7-aza)][Aze][ξK](DOTA)-NH2; disulfide 4-10), 10 to 100 nM.
